This is an account of results in patent US20240270692A1, “S(+) FORM OF 4-(2,4-DIFLUOROPHENYL)-2-(1H-INDOL-3-YL)-4-OXO-BUTANOIC ACID” (TOHOKU UNIVERSITY, priority 2021, published 2024).

Data set [1] is described as follows: In vivo administration test 1: intravenous administration, plasma concentration by LC-MS/MS. Also noted: species or system cynomolgus monkeys. The settings on record: for half-life / AUC / ke: male cynomolgus monkeys, intravenous, single dose 1 mg/kg, plasma. The method, then:
Each enantiomer (S(+) form or R(−) form) of MA5 was dissolved in a mixed solution of physiological saline and 0.1 N sodium hydroxide (9:1), and filtered and sterilized by using a 0.22 μm filter to prepare a solution containing 2 mL/kg of each enantiomer of MA5. Next, the solution containing each enantiomer of MA5 was intravenously administered to each of three 4- to 5-year-old male cynomolgus monkeys at a single dose of 1 mg/kg. As a control, a solution containing no enantiomer of MA5 was also administered in the same manner. […] The analysis conditions for LC-MS/MS are as follows.
As an ionization unit, an apparatus in which NANOSPACESI-2 (manufactured by OSAKA SODA CO., LTD.) as a high-performance liquid chromatograph was connected to a triple quadrupole mass spectrometer (TSQ Quantum Ultra, manufactured by Thermo Fisher Scientific Inc.) equipped with an ESI probe was used. The S(+) form of MA5 (S-(+)-MA5) and the R(−) form of MA5 (R-(−)-MA5), which are substances to be analyzed, were subjected to quantitative analysis by the internal standard method using their respective stable isotopes S-(+)-MA5-d6 and R-(−)-MA5-d6. […] AD-3R (150×2.1 mm i.d., 3.0 μm particle size, manufactured by Daicel Corporation) was used as the analytical column, and CAPCELL C8UG120 (10×2.0 mm i.d., 5.0 μm particle size, manufactured by OSAKA SODA CO., LTD.) was used as the guard column. The column oven temperature was 35° C. Formic acid/water (0.1/100 [v/v]) (solution A)/acetonitrile (solution B) was used as the mobile phase, and the flow rate was 200 μL/min. The measurement was carried out under an isocratic condition in which a single composition of solution A/solution B (57/43 [v/v]) was used for elution. Solution A/solution B (57/43 [v/v]) was used until the analysis time reached 9.5 minutes, and solution A/solution B (10/90 [v/v]) was used after the analysis time reached 9.7 minutes. In addition, a system for washing the column with solution A/solution B (10/90 [v/v]) was incorporated while the analysis time elapsed was 9.7 minutes to 11.7 minutes, and the column was equilibrated with solution A/solution B (57/43 [v/v]) while the analysis time elapsed was 11.8 minutes to 15 minutes. The retention time was 6.95 minutes for S-(+)-MA5, 6.80 minutes for S-(+)-MA5-d6, 8.69 minutes for R-(−)-MA5, and 8.56 minutes for R-(−)-MA5-d6.
The MS conditions were detected in negative ion mode, a spray voltage set to 2.5 kV, a vaporizer temperature set to 250° C., and an ion transfer tube temperature set to 250° C. The precursor ion>product ion SRM channel was set to “m/z 328.0>116.2” for MA5 and “m/z 334.0>121.1” for MA5-d6. The collision energy for generating a product ion was set to 12 eV for MA5 and 17 eV for MA5-d6. Waveform analysis and quantitative calculation by the internal standard method were carried out by using Xcalibur (manufactured by Thermo Fisher Scientific Inc.).

Data set [2] is described as follows: Physical properties: coloration and degradation of dissolution solutions. It counts as physicochemical.
A short description of data set [3]: Physical properties: solubility in solvents. It counts as physicochemical.
The mark [4] stands for this setting: cynomolgus monkey, read-out: AUC value.

Structures are written as SMILES. Where two headings read alike, the source gives them in different places.

As usually defined, the half-life is the time in which the quantity being followed falls by half. A higher half-life goes with slow loss. The term AUC denotes the area under the concentration-time curve, a measure of exposure. For `O=C(C[C@@H](C(=O)O)c1c[nH]c2ccccc12)c1ccc(F)cc1F` [R(−) form of MA5, 4-(2,4-difluorophenyl)-2-(1H-indol-3-yl)-4-oxo-butanoic acid], the half-life in data set [1] (cynomolgus monkey) was 1.1 h. In addition, the AUC in data set [1] (setting [4]) and in data set [1] was 12 µg·h/mL each time. In data set [1], the ke is 0.63 h⁻¹.
As to `O=C(C[C@H](C(=O)O)c1c[nH]c2ccccc12)c1ccc(F)cc1F` [S(+) form of MA5, 4-(2,4-difluorophenyl)-2-(1H-indol-3-yl)-4-oxo-butanoic acid], the “degradation product on silica gel TLC plate” value is “a large amount of a degradation product was generated” in data set [2] (alcohol-chloroform dissolution solution); “no degradation product was generated” in data set [2] (dissolution solution developed immediately); “a degradation product appeared” in data set [2] (dissolution solution spotted and developed after some time); “not easily generated” in data set [2] (ethyl acetate dissolution solution). The “coloration of dissolution solution” value in data set [2] (ethanol, isopropanol, acetone, acetonitrile, ethyl acetate, 50% acetonitrile aqueous solution, or 0.1% formic acid-containing acetonitrile solution, refrigerated for about a week) is recorded as “does not become colored”; in data set [2] (methanol, dichloromethane, chloroform, 50% methanol aqueous solution, or 0.1% formic acid-containing methanol solution, refrigerated for about a week) it was “colored pale yellow”; in data set [2] (mixed solvent of an alcohol (methanol, ethanol, or isopropanol) and chloroform, the day after preparation), “colored yellow”. For the same compound, in data set [2] (light, acid, or alkali condition), the “stability under a light, acid, or alkali condition” value was “undergoes coloration and degradation”. In addition, the “R(−) form of MA5 in plasma after administration of the S(+) form (chiral conversion in vivo)” value in data set [1] (5 minutes to 24 hours after intravenous administration, cynomolgus monkeys) was “not detected”. In addition, the half-life in data set [1] (cynomolgus monkey) is 2.4 h. Also, the AUC in data set [1] (setting [4]) and in data set [1] was 30 µg·h/mL throughout. In data set [1] (from AUC values, intravenous 1 mg/kg, cynomolgus monkeys), the “more likely to be retained in blood than the R(−) form of MA5” value is reported as 2.5 times. For the same compound, the ke in data set [1] amounted to 0.29 h⁻¹. For the same compound, the solubility result in data set [3] (in a 50% acetonitrile aqueous solution) is listed as “slightly soluble”; in data set [3] (in a 50% methanol aqueous solution) it was “sparingly soluble”; in data set [3] (in acetone, acetonitrile, ethyl acetate, chloroform, dichloromethane, methanol, ethanol, and isopropanol), “easily soluble”.
